In paper PMC10825690, “Crystal structures of human immune protein FIBCD1 suggest an extended binding site compatible with recognition of pathogen-associated carbohydrate motifs” (The Journal of Biological Chemistry, 2023):
Numbering of substitutions follows the chain as printed.

Key:
FIBCD1-FReD [1] = target: T1, FIBCD1-FReD (Homo sapiens, UniProt Q8N539); assay: Microscale thermophoresis (MST) affinity assay; format: binding; settings: for Kd: labeled FIBCD1-FReD 30 nM, TBS/Tw 5 mM CaCl2, 25 °C, mean ± SD, three to four measurements
T1 construct: FIBCD1-FReD (residues 236–461) was expressed in Sf9 insect cells; made in house; host or cells: Sf9 insect cells (pNT-Bac vector)
T1 sequence (Q8N539 236-461): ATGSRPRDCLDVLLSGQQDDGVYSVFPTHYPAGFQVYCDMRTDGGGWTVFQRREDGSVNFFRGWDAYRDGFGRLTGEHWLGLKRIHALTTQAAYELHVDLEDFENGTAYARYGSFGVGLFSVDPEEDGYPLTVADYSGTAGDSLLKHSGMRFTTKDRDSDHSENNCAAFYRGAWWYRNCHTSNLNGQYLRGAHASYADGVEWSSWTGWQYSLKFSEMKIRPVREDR
Description: (§1) The binding of FIBCD1-FReD with GlcNAc, (GlcNAc)3, and longer N-acetylchitooligosaccharides of defined length ((GlcNAc)5 and (GlcNAc)11) was investigated by ELISA. The relative affinity for these carbohydrates was assessed by inhibiting the binding of FIBCD1 to immobilized acetylated bovine serum albumin (AcBSA) in microtiter plates. […] The ligand-binding properties of FIBCD1-FReD were further evaluated using microscale thermophoresis (MST) measurements.
(§2) The cloning, expression, and purification of FIBCD1-FReD have been described in detail ([1]). Briefly, for the protein used for the ligand-bound crystal structures, the initial enzyme-linked immunosorbent inhibition assay (ELISA) and the MST affinity assay, FIBCD1-FReD (residues 236–461) was expressed in Sf9 insect cells using the pNT-Bac vector expression system. The recombinant FIBCD1-FReD variants used for the native crystal structure and for the repeated measurements of (GlcNAc)n n = 1, 2, 3 inhibition by ELISA, the same fragments of FIBCD1-FReD (wildtype, H396A, and K381L) were expressed in Chinese hamster ovary (CHO) cells using the ExpiCHO expression system (ThermoFisher Scientific) with FIBCD1-FReD (including the IgG K signal peptide for secretion) cloned into the pcDNA3.1+ plasmid (Genscript). Purification of the FIBCD1-FReD variants, regardless of the expression system, was achieved through affinity chromatography using acetylated Toyopearl AF-Amino-650M resin (Tosoh) followed by ion-exchange chromatography using a Resource Q ion-exchange column (GE Healthcare) as outlined in Schlosser et al. (Ref ([1])).
The affinity between recombinant FIBCD1-FReD and the acetylated sugars GlcNAc, (GlcNAc)5 and ManNAc as well as AcBSA was determined by MST. FIBCD1-FReD expressed by insect cells was labeled using the Monolith NT Protein Labeling Kit RED-NHS (NanoTemper Technologies) according to the manufacturer’s instructions. Removal of unreacted dye was performed with the supplied columns equilibrated in TBS containing 5 mM CaCl2. Labeled FIBCD1-FReD was diluted in assay buffer (TBS/Tw containing 5 mM CaCl2) and used at a constant concentration of 30 nM throughout the experiments, whereas the putative ligands were titrated in 2-fold dilutions, ranging from 0.6 nM to 10 μM (AcBSA), 100 μM to 200 mM (GlcNAc), 50 μM to 100 mM (GlcNAc)5, and 250 μM to 500 mM (ManNAc). For the measurements, all ligands were incubated with labeled FIBCD1-FReD for 20 min at RT (21–22 °C) before being loaded into standard capillaries (NanoTemper Technologies). […] Data from three to four independently pipetted experiments were analyzed using the NanoTemper Analysis 1.2.20 software and used to fit the data for determination of the Kd values.

FIBCD1-FReD [2] = target: T1, FIBCD1-FReD; assay: ELISA inhibition of FIBCD1-FReD (insect cell expressed) binding to immobilized AcBSA; settings: insect cell expressed FIBCD1-FReD 50 ng/ml, 5 mM CaCl2, mean ± SD, three to four experiments
Description: as §1, §2
(§3) The specificity of the binding of recombinant FIBCD1-FReD, expressed in insect cells, to AcBSA was assayed in technical duplicates by inhibition with acetylated compounds, including GlcNAc (Sigma-Aldrich) and three N-acetylchitooligosaccharides of defined length ((GlcNAc)3, (GlcNAc)5, and (GlcNAc)11) and acetylation (66%), which were kindly provided by Professor Morten Sølie (Norwegian University of Life Sciences). […]

[3] = target: T2, wildtype (WT) FIBCD1-FReD (Homo sapiens, UniProt Q8N539); assay: Repeated ELISA inhibition of wildtype FIBCD1-FReD (CHO expressed) binding to AcBSA; settings: ELISA repeated measurements, mean ± SD, eight experiments
T2 construct: FIBCD1-FReD (residues 236–461) was expressed in Sf9 insect cells; IgG K signal peptide (N); made in house; host or cells: CHO cells (ExpiCHO system, pcDNA3.1+)
T2 sequence (Q8N539 236-461): T1 sequence (Q8N539 236-461)
Description: To study the finer details of short oligomer recognition, binding of GlcNAc, (GlcNAc)2, and (GlcNAc)3 was further investigated by ELISA.
as §2
as §3, with “Sciences). The monoclonal antibodies used in the study here were generated in-house at the University of Southern Denmark and chosen from a large series of monoclonal antibodies raised against the FReD domain (human) in FIBCD1-deficient mice—details for the production are given in ([3]).” for “Sciences).”

[4] = target: T3, mutant variant H396A FIBCD1-FReD (Homo sapiens, UniProt Q8N539, H396A); assay: Repeated ELISA inhibition of H396A FIBCD1-FReD (CHO expressed) binding to AcBSA; settings: ELISA repeated measurements, mean ± SD, five experiments
T3 construct: FIBCD1-FReD (residues 236–461) was expressed in Sf9 insect cells; IgG K signal peptide (N); made in house; host or cells: CHO cells (ExpiCHO system, pcDNA3.1+)
T3 sequence (Q8N539 236-461 H396A): T1 sequence (Q8N539 236-461) with H161A
Description: (§4) For S1(2), the mutation K381L was chosen to block this site. In the crystal structure of the homologous protein ficolin-3 the overall topology of this pocket is similar but the Leu381 side chain extends into the site and a similar orientation in FIBCD1 would preclude the ligand binding in this pocket (see Fig. S5). […] For the S1(3) site, the mutation H396A was used. There is no significant difference in affinity for H396A compared with wildtype for each GlcNAc ligand investigated (see Fig. S6C).
as §2, §3

[5] = target: T4, FIBCD1-FReD mutant variant K381L (Homo sapiens, UniProt Q8N539, K381L); assay: ELISA binding of K381L FIBCD1-FReD to AcBSA; settings: two different detection antibodies (clones 11-14-25 and 11-14-13)
T4 construct: FIBCD1-FReD (residues 236–461) was expressed in Sf9 insect cells; IgG K signal peptide (N); made in house; host or cells: CHO cells (ExpiCHO system, pcDNA3.1+)
T4 sequence (Q8N539 236-461 K381L): T1 sequence (Q8N539 236-461) with K146L
Description: as §4
as §3, with “Sciences). The monoclonal antibodies used in the study here were generated in-house at the University of Southern Denmark and chosen from a large series of monoclonal antibodies raised against the FReD domain (human) in FIBCD1-deficient mice—details for the production are given in ([3]).” for “Sciences).”

FIBCD1 = tested on: FIBCD1; parameters: method as in PMID 19710473; settings: comparison with GlcNAc; cited from earlier work

Row | Compound | Kd (FIBCD1-FReD [1]) | IC50 (FIBCD1-FReD [2]) | IC50 [3] | IC50 [4] | other results
1 | CC(=O)N[C@@H]1C(O)O[C@H](CO)[C@@H](O)[C@@H]1O (stereo partly drawn) [ManNAc, N-acetyl-D-mannosamine] | 31000 ± 8000 µM | – | – | – | –
2 | CC(=O)N[C@H]1[C@H](O[C@H]2[C@H](O)[C@@H](NC(C)=O)C(O)O[C@@H]2CO)O[C@H](CO)[C@@H](O[C@@H]2O[C@H](CO)[C@@H](O)[C@H](O)[C@H]2NC(C)=O)[C@@H]1O (stereo partly drawn) [(GlcNAc)3] | – | 500 ± 60 µM | 1100 ± 100 µM | 1200 ± 140 µM | –
3 | AcBSA: acetylated bovine serum albumin, poly-acetylated model ligand | – | – | – | – | binding of K381L FIBCD1-FReD to AcBSA in ELISA [5]: did not bind
4 | CC(=O)N[C@H]1[C@H](O[C@H]2[C@H](O)[C@@H](NC(C)=O)C(O)O[C@@H]2CO)O[C@H](CO)[C@@H](O)[C@@H]1O (stereo partly drawn) [(GlcNAc)2, N,N′-diacetylchitobiose] | – | – | 1400 ± 160 µM | 1400 ± 110 µM | –
5 | (GlcNAc)5 | 1200 ± 400 µM | 100 ± 30 µM | – | – | fold difference in affinity (Kd) between GlcNAc and (GlcNAc)5 (FIBCD1-FReD [1]; MST, GlcNAc Kd versus (GlcNAc)5 Kd): 23 fold
6 | CC(=O)N[C@H]1[C@H]([C@H](O)[C@H](O)CO)OC(O)(C(=O)O)C[C@@H]1O (stereo partly drawn) [Neu5Ac, N-acetylneuraminic acid] | – | – | – | – | IC50 relative to GlcNAc (FIBCD1): lower IC50 than GlcNAc
7 | CC(=O)N[C@@H]1[C@@H](O)[C@H](O)[C@@H](CO)O[C@H]1O [GlcNAc, N-acetylglucosamine] | 27000 ± 9000 µM | 2000 ± 220 µM | 2200 ± 190 µM | 2400 ± 220 µM | –
